Measured values taken from US20260265199A1, “CRYSTALLINE FORMS OF (R)-2-AMINO-5-(4-(2-(3,5-DIFLUOROPHENYL)-2-HYDROXYACETAMIDO)-2-METHYLPHENYL)-N-ISOPROPYLNICOTINAMIDE AND METHODS FOR USING THE SAME” (HIBERCELL, INC., priority 2023, published 2026).
Where a name gives a salt, the structure may show the parent alone. Read-outs that look alike come from different tables or passages of the source.

Legend:
Assay type in all cases: physicochemical
[1] = Solubility of hemi-fumarate Form A by visual assessment upon solvent addition
Method: The solubility of the Form A of the hemi-fumarate salt was evaluated by visual assessment of samples upon solvent addition, employing organic solvents and water. Among the solvents, the Form A of the hemi-fumarate salt had the highest solubility in THF, MeOH, EtOH and acetone (>50 mg/mL).

[2] = Slurry study of Form A of the hemi-fumarate salt (XRPD of solids)
Method: XRPD patterns of samples were collected using with an X-ray diffractometer (Bruker D8 advance). The system was equipped with LynxEye detector. Samples were scanned from 3 to 40° 2θ, at a step size 0.02° 2θ. The tube voltage and current were 40 KV and 40 mA, respectively.
Slurry studies of the Form A of the hemi-fumarate salt were conducted at room temperature for four days and at 50° C. for one day. About 10 mg to 35 mg of the Form A of the hemi-fumarate salt was slurried in different solvents at RT or 50° C. for one to four days. Solid samples were collected by filtration and analyzed by XRPD (Example 1, XRPD) at a specific time. […] The overlay of XRPD patterns from the slurry study of the Form A of the hemi-fumarate salt of the compound of formula (I) is depicted in FIG. 11.

[3] = Mechanical treatment (manual grinding) of Form A of the hemi-fumarate salt
Method: Appropriate amount of the Form A of the hemi-fumarate salt was ground for about two and five minutes manually and the samples were analyzed by XRPD (Example 1, XRPD). […] The crystallinity became low after grinding for five minutes. Solubility of the Form A of the Hemi-Fumarate Salt of the Compound of Formula (I) in Biologically Relevant Media

[4] = Physical stability under high humidity (92.5% RH); conditions: 11 days
Method: The physical stability of the Form A of the hemi-fumarate salt was evaluated under high humidity (92.5% RH) for 11 days.

[5] = Dynamic vapor sorption (DVS Intrinsic, 25° C., 0-90% RH)
Method: Moisture sorption/desorption data were collected on a DVS Intrinsic (SMS, UK). The sample was placed into a tared sample chamber and automatically weighed. The sample was dried at 40° C. until the dm/dt was less than 0.002% and cooled to 25° C. Set the instrument parameters as below. • Step time (min): 60 min • Sample temperature: 25° C. • Cycle: Full cycle • Adsorption: 0, 10, 20, 30, 40, 50, 60, 70, 80, 90 • Desorption: 80, 70, 60, 50, 40, 30, 20, 10, 0 • Save Data Rate: 5 s • Total flow rate: 200 sccm • Post experiment total flow: 200 sccm
The associated DVS isotherm plot of Form A of the hemi-fumarate salt is depicted in FIG. 10.

Compound `Cc1cc(NC(=O)[C@H](O)c2cc(F)cc(F)c2)ccc1-c1cnc(N)c(C(=O)NC(C)C)c1` [Form A of the hemi-fumarate salt, (R)-2-amino-5-(4-(2-(3,5-difluorophenyl)-2-hydroxyacetamido)-2-methylphenyl)-N-isopropylnicotinamide] has a solubility ([1]; 2-butanone, organic solvent or mixture, thermodynamic from solid, 2-butanone, read-out: Solubility) greater than 27.5 mg/mL, a solubility ([1]; Acetone) greater than 50 mg/mL and a solubility ([1]; EtOAc, organic solvent or mixture, thermodynamic from solid, EtOAc, read-out: Solubility) greater than 9.8 mg/mL. The solubility ([1]; EtOH) was greater than 53.4 mg/mL, the solubility ([1]; EtOH, organic solvent or mixture, thermodynamic from solid, EtOH, read-out: Solubility) was greater than 50 mg/mL and the solubility ([1]; IPA, organic solvent or mixture, thermodynamic from solid, IPA, read-out: Solubility) was greater than 17.8 mg/mL. It also gave a solubility ([1]; IPAc, organic solvent or mixture, thermodynamic from solid, IPAc, read-out: Solubility) greater than 2.1 mg/mL, a solubility ([1]; MTBE, organic solvent or mixture, thermodynamic from solid, MTBE, read-out: Solubility) of less than 2.2 mg/mL and a solubility ([1]; MeCN, organic solvent or mixture, thermodynamic from solid, MeCN, read-out: Solubility) greater than 3.2 mg/mL. The solubility ([1]; MeOH) was greater than 62.2 mg/mL, the solubility ([1]; MeOH, organic solvent or mixture, thermodynamic from solid, MeOH, read-out: Solubility) was greater than 50 mg/mL and the solubility ([1]; THF) was greater than 81.8 mg/mL. It also gave a solubility ([1]; THF, organic solvent or mixture, thermodynamic from solid, THF, read-out: Solubility) greater than 50 mg/mL, a solubility ([1]; acetone, organic solvent or mixture, thermodynamic from solid, Acetone, read-out: Solubility) greater than 50 mg/mL and a solubility ([1]; heptane, organic solvent or mixture, thermodynamic from solid, Heptane, read-out: Solubility) of less than 0.63 mg/mL. The solubility ([1]; isobutanol, organic solvent or mixture, thermodynamic from solid, Isobutanol, read-out: Solubility) was greater than 5.8 mg/mL, the solubility ([1]; toluene, organic solvent or mixture, thermodynamic from solid, Toluene, read-out: Solubility) was less than 0.96 mg/mL and the solubility ([1]; water, thermodynamic from solid, Water, read-out: Solubility) was less than 0.83 mg/mL. For the same compound, the “XRPD result after slurry” value ([2]; Acetone/heptane (1:4), 50° C., 1 day) was “Form A”, the “XRPD result after slurry” value ([2]; Acetone/heptane (1:4), room temperature, 4 days) was “Form A” and the “XRPD result after slurry” value ([2]; EtOAc, 50° C., 1 day) was “Form A”. The “XRPD result after slurry” value ([2]; Heptane, 50° C., 1 day) was “Form A”, the “XRPD result after slurry” value ([2]; IPAc, 50° C., 1 day) was “Form A” and the “XRPD result after slurry” value ([2]; Isobutanol, 50° C., 1 day) was “Form A”. For the same compound, the “XRPD result after slurry” value ([2]; Isobutanol, room temperature, three days (footnote *)) was “Form A*”, the “XRPD result after slurry” value ([2]; MTBE, 50° C., 1 day) was “Form A” and the “XRPD result after slurry” value ([2]; MTBE, room temperature, 4 days) was “Form A”. The “XRPD result after slurry” value ([2]; MeCN, 50° C., 1 day) was “Form A”, the “XRPD result after slurry” value ([2]; MeCN, room temperature, 4 days) was “Form A” and the “XRPD result after slurry” value ([2]; MeOH/water (1:4), 50° C., 1 day) was “mixture of the Form B of the hemi-fumarate salt of the compound of formula (I) (Form B) and the free base Form of the compound of formula (I) (FBF)”. For the same compound, the “XRPD result after slurry” value ([2]; Toluene, 50° C., 1 day) was “Form A”, the “XRPD result after slurry” value ([2]; Water, 50° C., 1 day) was “mixture of the Form B of the hemi-fumarate salt of the compound of formula (I) (Form B) and the free base Form of the compound of formula (I) (FBF)” and the “Crystallinity after manual grinding” value ([3]; grinding for five minutes) was “became low”. The “XRPD form after manual grinding” value ([3]; ground for about two and five minutes manually) was “remained unchanged and no new form was obtained by grinding”, the “Physical stability (form by XRPD)” value [4] was “No form change was detected” and the “Crystal form after DVS analysis” value [5] was “did not change”. The “Hygroscopicity (DVS)” value ([5]; 25° C.) was “slightly hygroscopic” and the “Water uptake (DVS)” value ([5]; at 80% RH, 25° C.) was 0.66%.
